# “Also recorded” adds a separate entry of the source.
# Experiments:
# [1] = tested on: HIST1H2BJ-GFP, AAVS1 (S8, S10), EMX1, VEGFA, TRAC (S2, S3) loci; experiment: Deep sequencing (NGS) of edited iPSCs at open and closed chromatin loci; format: cell-based, human
# Method: Next Generation Sequencing of genomic DNA: DNA was isolated from iPSCs by adding 50 μL of DNA QuickExtract™/well (Epicentre) following treatment by Accutase™ and centrifugation. The DNA extract solution was incubated at 65° C. for 15 min, 68° C. for 15 min, and finally 98° C. for 10 min. Genomic PCR was performed according to the manufacturer's instructions using Q5 Hot Start polymerase (NEB). Sequencing indices were added with a second round of PCR using indexing primers (IDT), followed by a purification using AMPure XP magnetic bead purification kit (Beckman Coulter). Samples were pooled and sequenced on an Illumina® MiniSeq at a run length of 1×150 bp or 2×150 bp according to the manufacturer's instructions. Analysis was performed using CRISPR RGEN.
# Multiple gRNA sequences targeting different sites of open (HIST1H2BJ and AAVS1) and closed chromatin (TRAC, VEGFA, EMX1) were selected to investigate if the observed TSA-induced increase in gene-editing efficiency at HIST1H2BJ-GFP locus is specific to the gRNA sequence or the chromatin state of the target locus. To gain a more detailed analysis of gene-edited events in iPSCs, deep sequencing was performed on edited cells obtained after TSA treatment. The genomic DNA was harvested on day 6 after Cas9 RNP delivery. PCR using primers flanking the gRNA target sites was then performed and prepared for next-generation sequencing (NGS) using the Illumina® MiniSeq™ system. […] Corroborating with this observation, we noted an increase in the local chromatin accessibility at the on-target sites upon TSA treatment (Data not shown). […] The highest frequency of indels was found three to four nucleotides upstream from the protospacer adjacent motif (PAM) sequence, consistent with reports of type II CRISPR systems (FIG. 2C,E). Furthermore, edited reads contained higher deletion events (approximately 50-80%) than insertion events (approximately 5-20%). Similar observations were reported in deep sequencing analysis of human cells edited by S. Pyogenes Cas9 (SpyCas9). The percentage of edited reads with Single Nucleotide Polymorphisms (SNPs) decreased upon chromatin decondensation via TSA treatment (FIG. 2F), while the relative distribution of SNPs around the cut site remained similar (data not shown). This is consistent with reports that indicate nucleosomes are enriched in SNPs.
# edited iPSC clones = experiment: G-banded karyotyping of edited iPSC clones; format: cell-based, human; settings: 6.25 ng/mL TSA
# Method: Karyotyping: Cells cultured for at least 5 passages were grown to 60-80% confluence and shipped for karyotype analysis to WiCell Research Institute, Madison, Wis. G-banded karyotyping was performed using standard cytogenetic protocols. Metaphase preparations were digitally captured with Applied Spectral Imaging software and hardware. For each cell line, 20 GTL-banded metaphases were counted, of which a minimum of 5 were analyzed and karyotyped. Results were reported in accordance with guidelines established by the International System for Cytogenetic Nomenclature 2016.
# [2] = edited iPSCs obtained after TSA treatment, all loci
# [3] = seven loci, change upon TSA treatment
structure (smiles),measurement,setting,value
"CC(/C=C/C(=O)NO)=C\[C@@H](C)C(=O)c1ccc(N(C)C)cc1 [TSA, Trichostatin A]",Deletion events in edited reads,[1]; [2],50-80%
same,Insertion events in edited reads,[1]; [2],5-20%
same,% edited reads with insertions,[1]; [3],no significant change; also recorded: did not undergo significant change
same,% edited reads with only SNPs,[1]; [3],decreased
same,% editing efficiency by deep sequencing,"[1]; seven open and closed loci, day 6, TSA vs 0 ng/mL",increased
same,Karyotype abnormality in one clone (#5),"edited iPSC clones; FIG. 4E, known recurrent duplication in pluripotent stem cell cultures",interstitial duplication in the long (q) arm of chromosome 20 in five of the twenty cells examined
same,Karyotype of edited iPSC clones,"edited iPSC clones; five clones, HIST1H2BJ-GFP locus",no genomic abnormalities in four of the five clones; also recorded: normal karyotype

# Reference: patent US20230272357A1, “METHODS OF GENOME EDITING INCLUDING CONTROLLED OPENING OF CHROMATIN” (Wisconsin Alumni Research Foundation, priority 2021, published 2023)
